# Key:
# [1] = target: T1, Nitric oxide synthase, inducible (Mus musculus) (UniProt P29477); details: at 1 mM;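 also: recombinant enzyme, activity read out colorimetrically after 40 min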
# T1 sequence (whole entry): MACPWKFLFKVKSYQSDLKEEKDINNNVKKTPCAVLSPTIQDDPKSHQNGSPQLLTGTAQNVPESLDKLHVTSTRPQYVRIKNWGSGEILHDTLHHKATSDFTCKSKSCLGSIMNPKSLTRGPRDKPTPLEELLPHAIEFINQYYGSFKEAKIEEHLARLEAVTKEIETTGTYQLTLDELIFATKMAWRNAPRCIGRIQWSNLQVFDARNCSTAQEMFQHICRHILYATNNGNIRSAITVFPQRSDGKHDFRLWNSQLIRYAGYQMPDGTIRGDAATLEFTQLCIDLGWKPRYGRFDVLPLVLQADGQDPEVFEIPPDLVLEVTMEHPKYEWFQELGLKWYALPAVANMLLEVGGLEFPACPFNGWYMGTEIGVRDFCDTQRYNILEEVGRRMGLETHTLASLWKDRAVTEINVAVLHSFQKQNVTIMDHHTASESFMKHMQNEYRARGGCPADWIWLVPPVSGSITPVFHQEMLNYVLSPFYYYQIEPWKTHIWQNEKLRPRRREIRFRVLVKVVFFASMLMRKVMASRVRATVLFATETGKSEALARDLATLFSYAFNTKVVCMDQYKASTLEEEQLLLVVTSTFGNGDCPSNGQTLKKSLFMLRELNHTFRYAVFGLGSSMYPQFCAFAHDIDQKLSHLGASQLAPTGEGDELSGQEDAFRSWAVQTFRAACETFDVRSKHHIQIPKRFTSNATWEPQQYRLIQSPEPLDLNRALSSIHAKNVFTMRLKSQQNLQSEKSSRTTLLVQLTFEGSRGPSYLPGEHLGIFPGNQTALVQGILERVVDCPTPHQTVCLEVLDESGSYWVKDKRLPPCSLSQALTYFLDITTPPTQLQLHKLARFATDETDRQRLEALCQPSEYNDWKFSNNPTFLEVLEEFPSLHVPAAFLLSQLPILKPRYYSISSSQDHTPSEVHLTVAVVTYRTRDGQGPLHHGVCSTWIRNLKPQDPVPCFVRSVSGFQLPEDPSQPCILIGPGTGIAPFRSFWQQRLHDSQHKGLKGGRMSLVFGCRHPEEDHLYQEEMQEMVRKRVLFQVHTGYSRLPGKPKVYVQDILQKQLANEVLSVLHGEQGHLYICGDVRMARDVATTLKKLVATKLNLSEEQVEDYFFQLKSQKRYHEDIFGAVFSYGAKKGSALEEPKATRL
# [2] = target: Stromelysin-1 (Homo sapiens) (UniProt P08254); details: at 1 mM;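 also: recombinant enzyme, inhibition read after a 30 min incubation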
# Stromelysin-1 (Homo sapiens), sequence (P08254 100-477 limits assumed): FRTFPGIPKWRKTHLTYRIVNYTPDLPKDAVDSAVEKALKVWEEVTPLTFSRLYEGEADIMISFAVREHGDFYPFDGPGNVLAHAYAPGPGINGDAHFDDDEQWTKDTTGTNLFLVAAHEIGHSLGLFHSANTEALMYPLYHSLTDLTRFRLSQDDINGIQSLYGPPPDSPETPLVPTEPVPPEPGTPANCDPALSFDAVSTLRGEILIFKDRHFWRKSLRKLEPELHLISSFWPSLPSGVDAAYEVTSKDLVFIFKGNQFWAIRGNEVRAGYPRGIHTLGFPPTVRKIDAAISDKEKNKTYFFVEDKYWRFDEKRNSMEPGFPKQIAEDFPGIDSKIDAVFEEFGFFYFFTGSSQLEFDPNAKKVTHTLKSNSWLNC
# [3] = target: T2, Lethal factor (Bacillus anthracis) (UniProt P15917); details: at 1 mM
# T2 sequence (whole entry): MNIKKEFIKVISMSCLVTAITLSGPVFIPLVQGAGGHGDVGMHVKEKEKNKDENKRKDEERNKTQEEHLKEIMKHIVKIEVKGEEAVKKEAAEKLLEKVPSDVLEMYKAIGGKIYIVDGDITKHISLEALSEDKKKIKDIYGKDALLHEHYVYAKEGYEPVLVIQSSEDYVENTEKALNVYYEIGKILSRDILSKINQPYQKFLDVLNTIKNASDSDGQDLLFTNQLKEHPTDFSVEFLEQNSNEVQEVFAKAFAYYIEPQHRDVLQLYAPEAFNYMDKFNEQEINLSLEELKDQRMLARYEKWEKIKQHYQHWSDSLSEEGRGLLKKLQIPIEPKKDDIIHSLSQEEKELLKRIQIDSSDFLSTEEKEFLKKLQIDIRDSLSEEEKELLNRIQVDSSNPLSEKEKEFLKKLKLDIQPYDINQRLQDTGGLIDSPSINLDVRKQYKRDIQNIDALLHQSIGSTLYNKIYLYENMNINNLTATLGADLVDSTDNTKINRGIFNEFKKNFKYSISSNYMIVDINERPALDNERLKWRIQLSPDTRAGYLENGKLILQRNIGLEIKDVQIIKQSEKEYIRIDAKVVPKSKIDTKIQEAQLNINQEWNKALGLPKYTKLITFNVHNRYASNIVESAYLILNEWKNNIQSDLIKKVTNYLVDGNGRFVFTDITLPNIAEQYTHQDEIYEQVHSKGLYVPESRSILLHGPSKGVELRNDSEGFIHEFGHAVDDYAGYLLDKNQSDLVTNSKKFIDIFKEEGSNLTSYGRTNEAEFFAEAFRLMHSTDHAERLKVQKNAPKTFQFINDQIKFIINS
# [4] = target: T3, Tyrosinase (Agaricus bisporus) (UniProt O42713); details: at 1 mM;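 also: inhibition measured at 10 min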
# T3 sequence (whole entry): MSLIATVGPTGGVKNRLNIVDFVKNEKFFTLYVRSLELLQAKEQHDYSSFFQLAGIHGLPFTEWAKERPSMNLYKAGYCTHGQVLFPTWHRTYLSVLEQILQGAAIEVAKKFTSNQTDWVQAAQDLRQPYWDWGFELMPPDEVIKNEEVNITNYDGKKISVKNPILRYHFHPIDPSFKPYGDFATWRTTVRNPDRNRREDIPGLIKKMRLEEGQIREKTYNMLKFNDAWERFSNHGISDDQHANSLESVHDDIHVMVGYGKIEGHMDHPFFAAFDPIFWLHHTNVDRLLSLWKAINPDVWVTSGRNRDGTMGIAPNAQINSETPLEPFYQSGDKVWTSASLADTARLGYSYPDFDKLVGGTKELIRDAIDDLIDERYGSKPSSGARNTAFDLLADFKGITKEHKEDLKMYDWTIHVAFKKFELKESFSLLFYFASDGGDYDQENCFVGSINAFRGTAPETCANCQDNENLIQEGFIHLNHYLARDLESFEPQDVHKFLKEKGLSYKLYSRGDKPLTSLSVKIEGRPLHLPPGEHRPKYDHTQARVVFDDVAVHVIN
# [5] = target: Matrix metalloproteinase-9 (Homo sapiens) (UniProt P14780); details: at 1 mM;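 also: recombinant human MMP9, activity read after 30 min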
# Matrix metalloproteinase-9 (Homo sapiens), sequence (P14780 whole entry): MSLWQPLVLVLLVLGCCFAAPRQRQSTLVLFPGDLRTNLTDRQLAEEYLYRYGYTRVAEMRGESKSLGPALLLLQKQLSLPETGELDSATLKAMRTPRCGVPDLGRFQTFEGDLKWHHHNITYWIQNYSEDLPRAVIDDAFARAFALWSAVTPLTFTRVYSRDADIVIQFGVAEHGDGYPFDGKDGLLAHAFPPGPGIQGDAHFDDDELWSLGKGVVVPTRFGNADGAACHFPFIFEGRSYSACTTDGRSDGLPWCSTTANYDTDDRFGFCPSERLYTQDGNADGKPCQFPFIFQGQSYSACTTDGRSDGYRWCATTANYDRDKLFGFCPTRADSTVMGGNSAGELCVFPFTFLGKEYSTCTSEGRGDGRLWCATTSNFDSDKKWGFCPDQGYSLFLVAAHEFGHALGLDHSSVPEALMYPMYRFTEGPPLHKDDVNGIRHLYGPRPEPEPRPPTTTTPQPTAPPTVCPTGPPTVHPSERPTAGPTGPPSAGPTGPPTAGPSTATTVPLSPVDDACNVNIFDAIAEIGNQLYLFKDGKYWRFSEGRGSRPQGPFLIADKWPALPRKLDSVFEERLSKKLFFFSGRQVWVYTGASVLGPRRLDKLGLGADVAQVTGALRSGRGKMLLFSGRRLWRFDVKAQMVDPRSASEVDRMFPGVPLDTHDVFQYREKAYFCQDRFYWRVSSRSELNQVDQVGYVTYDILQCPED
# [6] = target: 72 kDa type IV collagenase (Homo sapiens, UniProt P08253); details: at 1 mM;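 also: recombinant human enzyme, inhibition read after a 30 min incubation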
# 72 kDa type IV collagenase, sequence (P08253 110-660 limits assumed): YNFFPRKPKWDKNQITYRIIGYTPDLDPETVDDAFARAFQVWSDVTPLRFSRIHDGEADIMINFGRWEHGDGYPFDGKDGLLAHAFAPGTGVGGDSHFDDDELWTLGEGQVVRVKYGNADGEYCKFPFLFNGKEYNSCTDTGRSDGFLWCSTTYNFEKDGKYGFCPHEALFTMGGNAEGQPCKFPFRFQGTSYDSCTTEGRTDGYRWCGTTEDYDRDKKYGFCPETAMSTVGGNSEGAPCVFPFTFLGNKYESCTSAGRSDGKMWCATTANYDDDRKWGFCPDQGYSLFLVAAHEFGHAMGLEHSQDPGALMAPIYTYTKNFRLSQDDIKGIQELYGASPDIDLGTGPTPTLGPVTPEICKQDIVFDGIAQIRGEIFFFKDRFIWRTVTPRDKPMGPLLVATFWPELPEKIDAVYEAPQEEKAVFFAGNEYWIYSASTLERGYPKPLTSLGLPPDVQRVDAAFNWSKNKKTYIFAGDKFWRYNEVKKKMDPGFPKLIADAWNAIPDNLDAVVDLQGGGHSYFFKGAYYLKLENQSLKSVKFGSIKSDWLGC
# [7] = target: T4, Interstitial collagenase (Homo sapiens) (UniProt P03956); details: at 1 mM;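 also: recombinant human enzyme, with inhibition measured after 30 min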
# T4 sequence (whole entry): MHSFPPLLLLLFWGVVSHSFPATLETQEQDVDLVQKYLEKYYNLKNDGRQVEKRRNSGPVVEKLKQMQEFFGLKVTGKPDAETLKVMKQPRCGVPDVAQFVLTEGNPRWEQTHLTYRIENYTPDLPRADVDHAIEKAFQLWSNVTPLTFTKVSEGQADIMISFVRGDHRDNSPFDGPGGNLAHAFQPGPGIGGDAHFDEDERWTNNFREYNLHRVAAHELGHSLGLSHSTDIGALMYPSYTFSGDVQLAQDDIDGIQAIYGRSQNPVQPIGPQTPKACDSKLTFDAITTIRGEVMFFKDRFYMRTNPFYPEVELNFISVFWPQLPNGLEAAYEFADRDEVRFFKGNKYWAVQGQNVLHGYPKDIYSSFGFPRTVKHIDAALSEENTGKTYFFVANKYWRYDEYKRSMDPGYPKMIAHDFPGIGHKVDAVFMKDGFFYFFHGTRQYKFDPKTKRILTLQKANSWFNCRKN
# [8] = target: Neutrophil collagenase (Homo sapiens) (UniProt P22894); details: at 1 mM;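 also: recombinant human MMP8 enzyme, percent inhibition read after 30 min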
# Neutrophil collagenase (Homo sapiens), sequence (P22894 101-467 limits assumed): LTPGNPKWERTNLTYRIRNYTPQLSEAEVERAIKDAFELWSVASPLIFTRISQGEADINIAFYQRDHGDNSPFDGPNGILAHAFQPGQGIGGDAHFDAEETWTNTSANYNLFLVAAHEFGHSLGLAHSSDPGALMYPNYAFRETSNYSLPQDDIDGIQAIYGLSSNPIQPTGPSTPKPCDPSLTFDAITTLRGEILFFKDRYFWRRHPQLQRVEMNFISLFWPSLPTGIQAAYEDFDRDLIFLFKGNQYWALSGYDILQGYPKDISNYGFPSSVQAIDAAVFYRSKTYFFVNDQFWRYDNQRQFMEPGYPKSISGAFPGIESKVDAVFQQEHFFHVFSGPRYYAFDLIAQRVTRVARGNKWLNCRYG
# [9] = target: T5, Polyunsaturated fatty acid 5-lipoxygenase (Homo sapiens) (UniProt P09917); experiment: Inhibition of human recombinant 5-lipoxygenase at 1 mM after 10 mins by fluorescence assay
# T5 sequence (whole entry): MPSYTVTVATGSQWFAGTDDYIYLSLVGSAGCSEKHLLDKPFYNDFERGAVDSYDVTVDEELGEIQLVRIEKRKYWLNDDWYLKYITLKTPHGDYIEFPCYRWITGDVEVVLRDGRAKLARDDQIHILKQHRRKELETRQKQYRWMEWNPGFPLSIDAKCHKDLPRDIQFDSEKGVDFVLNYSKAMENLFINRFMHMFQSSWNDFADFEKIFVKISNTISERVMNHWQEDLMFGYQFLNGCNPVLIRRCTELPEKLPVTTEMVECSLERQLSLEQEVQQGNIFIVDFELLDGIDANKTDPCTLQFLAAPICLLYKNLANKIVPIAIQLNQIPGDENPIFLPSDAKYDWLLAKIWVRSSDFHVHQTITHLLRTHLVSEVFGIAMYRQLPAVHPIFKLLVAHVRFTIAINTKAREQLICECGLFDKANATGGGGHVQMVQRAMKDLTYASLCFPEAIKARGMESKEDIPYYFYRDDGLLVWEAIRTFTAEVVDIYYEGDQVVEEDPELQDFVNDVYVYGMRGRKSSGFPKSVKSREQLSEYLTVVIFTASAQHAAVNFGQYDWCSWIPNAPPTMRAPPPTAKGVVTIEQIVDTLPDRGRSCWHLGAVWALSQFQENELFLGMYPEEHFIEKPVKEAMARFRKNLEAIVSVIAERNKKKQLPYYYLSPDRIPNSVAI
SMILES,inhibition [1] [%],inhibition [2] [%],inhibition [3] [%],inhibition [4] [%],inhibition [5] [%],inhibition [6] [%],inhibition [7] [%],inhibition [8] [%],inhibition [9] [%]
NC(=O)c1ccccc1O,14,1,0,-8,23,-1,21,24,
Cc1ccc2cccc(O)c2n1,7,71,44,,34,65,47,63,59
Cc1cc(=O)c(O)c(CO)o1,9,47,14,11,44,45,60,53,
CCc1c(O)c(=O)ccn1C,1,20,4,,13,32,34,34,78
OCc1ccnc(-c2cc(CO)ccn2)c1,21,96,9,,58,77,72,100,41
c1cnc2c(c1)ccc1cccnc12,30,91,67,,86,100,71,100,4
O=C(O)c1ccc2cccc(O)c2n1,29,94,89,75,68,84,82,88,
CCc1c(O)c(=O)ccn1CC,8,9,,,15,17,25,31,83
O=C(O)c1ccc2ccccc2n1,11,73,45,58,37,37,52,29,
CCc1occc(=O)c1O,8,38,25,-7,28,33,39,34,
O=C(O)c1ccc(O)cc1O,16,3,7,91,-8,-7,14,-1,
Cc1occc(=O)c1O,6,34,19,-6,32,38,41,19,
Oc1ccccc1O,28,1,47,,10,10,25,31,89
O=C(O)c1cccc(=O)n1O,-5,86,47,94,66,60,84,89,
O=c1cc(CO)occ1O,-4,62,33,,49,52,59,51,84
CC(C)c1cccc(=O)c(O)c1,18,98,66,54,99,90,95,100,
Nc1ccc2cccc(O)c2n1,38,87,59,,100,100,96,91,66

# Source: ChEMBL document CHEMBL1649420, “Identifying chelators for metalloprotein inhibitors using a fragment-based approach” (J Med Chem, 2011)
